The results in this text go back to patent US5405861A, “Triazole compounds and antifungal compositions thereof” (Takeda Chemical Industries, Co., Ltd., priority 1989, dated 1995).

Where two headings read alike, the source gives them in different places.

For one assay, the system named is Candida albicans. In words: Infection-preventing effect in experimental infection in mice, Method 1 (Table 7-1). To be noted: given 0 and 2 hours after infection, survival 7 days after infection, total dose. It is filed as in vivo, Crj:CDF1 mice. As to the method: Method 1 (Table 7-1): To 5-week-old Crj:CDF1 mice the minimum lethal dose of Candida albicans was inoculated intravenously. The test drug was given twice 0 and 2 hours after infection. The effectiveness of the drug was expressed in ED50 values calculated by the Reed and Muench method from the survival rate 7 days after infection. The ED50 values were calculated based on the total dose given on the two occasions.

The subject of assay [1] is Candida albicans (IFO 0538). In words: Antifungal activity against Candida albicans, paper disc growth inhibition zone (Tables 5 and 6). It is filed as cell-based. To be noted: 28° C., 2 days incubation; for zone of inhibition at 1000 µg/mL: 48 h, read-out: Inhibition zone diameter. As to the method:
The antifungal activities of the compounds (I) were evaluated by the following method: a sheet of filter paper disc (manufactured by Toyo Seisakusho, 8 mm in diameter) soaked in a 1000 μg/ml solution of a compound (I) in methanol was placed on an agar plate, which was incubated at 28° C. for 2 days, and the diameter of the growth inhibition zone around the filter paper disc was measured. The following culture media were used:
A: yeast nitrogen base agar medium
B: yeast nitrogen base agar medium (pH 7.0)

Where [2] appears, read: Candida albicans, sc, 168 h, s.c., read-out: ED50.
The mark [3] stands for this setting: pH 7, B medium (yeast nitrogen base agar, pH 7.0).
The mark [4] stands for this setting: Candida albicans, po, 168 h, p.o., read-out: ED50.

For the compound `C[C@@H](SCc1ncnn1C)[C@](O)(Cn1cncn1)c1ccc(F)cc1F` (relative stereo) [Compound 31], the ED50 in the assay on Candida albicans (setting [2]) amounted to 0.71 mg/kg. Also, in assay [1] (setting [3]), the zone of inhibition at 1000 µg/mL came out at 40 mm.
The like results for `C[C@@H](SCCc1nccn1C)[C@](O)(Cn1cncn1)c1ccc(F)cc1F` (racemic) [Compound 50, (2RS,3RS)-2-(2,4-difluorophenyl)-3-[2-(1-methylimidazol-2-yl)ethyl]thio-1-(1H-1,2,4-triazol-1-yl)-2-butanol] were, in that order, 3.2 mg/kg and 22 mm.
The corresponding values for `C[C@@H](SCc1nccn1C)[C@](O)(Cn1cncn1)c1ccc(F)cc1F` (relative stereo) [Compound 16] are 0.63 mg/kg and 25 mm.
Turning to `C[C@@H](SCc1cncn1C)[C@](O)(Cn1cncn1)c1ccc(F)cc1F` (racemic) [Compound 29, (2RS,3RS)-2-(2,4-difluorophenyl)-3-(1-methylimidazol-5-yl)methylthio-1-(1H-1,2,4-triazol-1-yl)-2-butanol], the ED50 in the assay on Candida albicans (setting [2]) is 0.71 mg/kg. The zone of inhibition at 1000 µg/mL in assay [1] (setting [3]) amounted to 38 mm.
The corresponding values for `Cc1oc(=O)oc1CS[C@H](C)[C@](O)(Cn1cncn1)c1ccc(F)cc1F` (racemic) [Compound 56, (2RS,3RS)-2-(2,4-difluorophenyl)-3-(5-methyl-2-oxo-1,3-dioxol-4-yl)methylthio-1-(1H-1,2,4-triazol-1-yl)-2-butanol] are 2 mg/kg and 30 mm.
Consider `C[C@@H](S)[C@](O)(Cn1cncn1)c1ccc(F)cc1F` (racemic) [Compound 39, (2RS,3RS)-2-(2,4-difluorophenyl)-3-mercapto-1-(1H-1,2,4-triazol-1-yl)-2-butanol], for which the figures for the median effective dose (ED50) in the assay with Candida albicans (setting [4]) and in the assay with Candida albicans (setting [2]) were 0.35 mg/kg and 0.19 mg/kg, respectively. Moreover, in assay [1] (setting [3]), the zone of inhibition at 1000 µg/mL amounted to 18 mm.
As for `C[C@@H](SCc1nccn1CCF)[C@](O)(Cn1cncn1)c1ccc(F)cc1F` (relative stereo) [Compound 48], the ED50 in the assay on Candida albicans (setting [2]) was determined as 0.77 mg/kg. Further, in assay [1] (setting [3]), the zone of inhibition at 1000 µg/mL was 23 mm.
Turning to `C[C@@H](SCc1nc2c(s1)CCC2)[C@](O)(Cn1cncn1)c1ccc(F)cc1F` (relative stereo) [Compound 25], the ED50 in the assay on Candida albicans (setting [2]) was determined as 3.2 mg/kg. In assay [1] (setting [3]), the zone of inhibition at 1000 µg/mL was 40 mm.
The like results for `C[C@@H](SCc1ncc2n1CCC2)[C@](O)(Cn1cncn1)c1ccc(F)cc1F` (relative stereo) [Compound 35] were, in that order, 0.71 mg/kg and 33 mm.
Take `OC(CSCCn1cncn1)(Cn1cncn1)c1ccc(F)cc1F` (stereo not shown) [Compound 2]: the ED50 in the assay on Candida albicans (setting [2]) worked out at 19.3 mg/kg. The zone of inhibition at 1000 µg/mL in assay [1] (A medium (yeast nitrogen base agar)) came to 18 mm; in assay [1] (setting [3]), 17 mm.
As for `C[C@@H](S)[C@](O)(Cn1cncn1)c1ccc(F)cc1F` [Compound 43, (2R,3R)-2-(2,4-difluorophenyl)-3-mercapto-1-(1H-1,2,4-triazol-1-yl)-2-butanol], the ED50 with Candida albicans (setting [4]) and in the assay with Candida albicans (setting [2]) was 0.18 mg/kg in each case. For the same compound, in assay [1] (setting [3]), the zone of inhibition at 1000 µg/mL was found to be 40 mm.
With `C[C@@H](SCc1ncc2cnccn12)[C@](O)(Cn1cncn1)c1ccc(F)cc1F` (relative stereo) [Compound 57, (2RS,3RS)-2-(2,4-difluorophenyl)-3-(imidazo[1,5-a]pyradin-3-yl)methylthio-1-(1H-1,2,4-triazol-1-yl)-2-butanol], the ED50 in the assay on Candida albicans (setting [2]) was determined as 0.5 mg/kg. The zone of inhibition at 1000 µg/mL in assay [1] (setting [3]) was found to be 30 mm.
The corresponding values for `C[C@@H](SCc1nccn1CC(F)F)[C@](O)(Cn1cncn1)c1ccc(F)cc1F` (relative stereo) [Compound 54] are 0.5 mg/kg and 25 mm.
As for `CC(n1cncn1)C(O)(CS)c1ccc(F)cc1F` (single isomer, unassigned) [Compound 116, 2-(2,4-difluorophenyl)-1-mercapto-3-[(1H)-1,2,4-triazol-1-yl]-2-butanol], the ED50 with Candida albicans (s.c.) is more than 4.0 mg/kg. This compound also registered an Inhibition zone diameter in assay [1] (B medium (yeast nitrogen base agar, pH 7.0)) of 30 mm.

Broadly, the ED50 is the midpoint of the dose-response relation.
